Converted amounts (≈) assume the structure as drawn.
Tests used:
[1] = Inhibitory activity towards microtubule disassembly relative to paclitaxel evaluated as ID50 compound/ID50 paclitaxel; type: functional
P388 = assay: Cytotoxicity against P388 leukemia cells was calculated; type: functional, cell-based; conditions: Mus musculus

Structure (SMILES)	ID50 ratio [1]	IC50 (P388) [µg/mL]
CC(=O)O[C@@]12CO[C@@H]1C[C@H](O)[C@@]1(C)C(=O)[C@H](O)C3=C(C)[C@@H](OC(=O)[C@H](O)[C@@H](NC(=O)OC(C)(C)C)c4ccccc4)C[C@@](O)([C@@H](OC(=O)c4ccccc4)[C@H]21)C3(C)C	0.6	
CC(=O)O[C@@]12CO[C@@H]1C[C@H](O)[C@@]1(CO)C(=O)[C@H](O)C3=C(C)[C@@H](OC(=O)[C@H](O)[C@@H](NC(=O)OC(C)(C)C)c4ccccc4)C[C@@](O)([C@@H](OC(=O)c4ccccc4)[C@H]21)C3(C)C	0.4	0.07 (≈ 0.085 µM)
